Laboratory results taken from patent US8519145B2, “Aryl compounds as PPAR ligands and their use” (Seoul National University Industry Foundation, priority 2006, dated 2013).
Read-outs that look alike come from different tables or passages of the source.

Legend:
[1] = Muscle endurance test (treadmill) in adult mice with forced exercise; type: in vivo, C57BL/6 mice; settings: 10 mg/kg oral, adult mice at 10 weeks, 30 days treadmill exercise
Procedure: Particularly, S14, S46 and S106 were orally administered to C57BL/6 mice at 10 weeks at the concentration of 10 mg/kg, during which the mice were forced to exercise. The exercise was performed with treadmill for […] once a day for 30 days, precisely at the speed of 2 meter/min for the first 5 minutes, at 5 meter/min for 5 minutes, at 8 meter/min for 5 minutes and at 20 meter/min for the last 5 minutes. At the finish, muscle endurance and muscle function enhancing effect was tested by using treadmill. As a result, the time (S14 treated group: 1.5 fold, S46 treated group: 1.3 fold, S106 treated group: 1.4 fold increased) and distance (S14 treated group: 1.5 fold, S46 treated group: 1.3 fold, S106 treated group: 1.4 fold increased) of exercise were all increased in the treatment group, compared with the control.

[2] = Morris water maze test, treatment during pregnancy and lactation; type: in vivo; settings: 10 mg/kg oral to pregnant mice in pregnancy and lactation; control 24.2 sec
Procedure: An animal test was performed to investigate the therapeutic effect of the compound of the present invention on dementia and Parkinson's disease based on the memory improving effect thereof. To confirm the effect of the compound of the present invention in the period of brain development, the compound was orally administered to pregnant mice at the concentration of 10 mg/kg in the periods of pregnancy and lactation. Morris water maze test was performed to detect any changes of the brain functions of the treatment group and the control group. This test facilitates the study of spatial learning and memory, which largely depends on the hippocampus in the brain.

hPPARγ = target: T1, hPPARγ (Homo sapiens, UniProt P37231); assay: Transfection assay (luciferase reporter), PPARγ; type: cell-based; settings: CV-1 cells, full length PPAR plasmid, 24 hours
T1 construct: Full length PPARs plasmid DNA; expressed in transfected cells; host or cells: CV-1 cells
T1 sequence (P37231 1-505): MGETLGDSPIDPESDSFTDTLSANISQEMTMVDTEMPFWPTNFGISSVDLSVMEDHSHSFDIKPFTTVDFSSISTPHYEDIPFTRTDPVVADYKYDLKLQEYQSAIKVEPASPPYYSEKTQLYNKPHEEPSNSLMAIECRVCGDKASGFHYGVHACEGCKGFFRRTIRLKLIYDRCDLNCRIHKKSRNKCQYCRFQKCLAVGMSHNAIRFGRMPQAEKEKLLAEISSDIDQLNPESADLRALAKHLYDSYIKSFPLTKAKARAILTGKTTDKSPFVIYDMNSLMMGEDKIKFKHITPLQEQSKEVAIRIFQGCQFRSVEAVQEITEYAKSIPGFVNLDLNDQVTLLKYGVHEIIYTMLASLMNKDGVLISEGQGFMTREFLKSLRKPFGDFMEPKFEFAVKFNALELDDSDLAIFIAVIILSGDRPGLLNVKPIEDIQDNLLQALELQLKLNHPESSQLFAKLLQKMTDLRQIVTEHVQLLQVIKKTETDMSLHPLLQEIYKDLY
Procedure: (§1) The PPARδ activity of the compound represented by formula (I) of the present invention was confirmed by transfection assay. In addition, the selectivity to PPAR subtypes, PPARα and PPARγ was examined. Cytotoxicity was tested by MTT assay and in vivo activity was investigated by animal experiment.
(§2) CV-1 cells were used in this assay. The cells were inoculated in a 96-well plate containing DMEM supplemented with 10% FBS, DBS (delipidated) and 1% penicillin/streptomycin and cultured in a 37° C., 5% CO2 incubator. The experiment was performed according to the steps of inoculation, transfection, sample treatment and confirmation. Particularly, CV-1 cells were inoculated in a 96 well-plate (5000 cells/well), followed by transfection 24 hours later. Full length PPARs plasmid DNA, reporter DNA confirming PPARs activity owing to its luciferase activity, β-galactosidase DNA providing information on transfection efficiency, and transfection reagent were used for the transfection. Samples were dissolved in dimethylsulfoxide (DMSO), which were treated to the cells via media at different concentrations. After culturing the cells in the incubator for 24 hours, the cells were lysed by using lysis buffer. Luciferase activity and β-galactosidase activity were measured with Luminometer and a microplate reader. The obtained values of luciferase were modified by the values of β-galactosidase. A graph was made with those values and EC50 was calculated.

[3] = Obesity inhibitory effect, high-fat feed mice; type: in vivo, C57BL/6 mice; settings: 10 mg/kg/day oral, 60 days, feeds containing 35% fat
Procedure: Obesity Inhibitory Effect
An animal test using mice was performed to confirm the in vivo effect of the compound of the present invention. C57BL/6 (SLC Co.) mice at 8 weeks were used. To induce obesity, feeds containing 35% fat were given. While feeding such high-fat feeds for 60 days, vehicle, S14, S46 and S106 (10 mg/kg/day) were orally administered.

[4] = Muscle endurance test (treadmill), treatment during pregnancy and/or lactation; type: in vivo, mice; settings: 10 mg/Kg/day
Procedure: Muscle Endurance Strengthening and Muscle Function Enhancing Effect
An animal test was performed to confirm muscle endurance strengthening and muscle function enhancing effect of the composition of the present invention. Most muscles are generated in developmental stage. Thus, S14, S46 and S106 (10 mg/Kg/day) were treated to pregnant mice in the period of either pregnancy or lactation or both pregnancy and lactation. Weight gaining and growth rate were not much different between fetuses of the control group and the treatment group. Muscles were observed after removing skin. As a result, muscles of the treatment group were red, unlike the control. ATPase staining and immunostaining were performed. As a result, type I muscle fiber was increased in the treatment group. The role of the changes of the muscle fiber in the enhancement of muscle endurance and muscle function was investigated by using treadmill test. As a result, running time was much extended in the treatment group, compared with the control.

[5] = GTT (glucose tolerance test), diabetes improving effect; type: in vivo, mice; settings: 10 mg/Kg/day oral; for fasting blood glucose versus control: 57 days; for diabetes improving effect: GTT
Procedure: Diabetes Improving Effect
GTT (glucose tolerance test) was performed to confirm the diabetes improving effect of the compound of the present invention. Glucose (1.5 g/Kg) was intra-abdominally administered to the mice pre-treated orally with samples for 57 days. Blood glucose was measured every hour. Fasting blood glucose was lower in the S14, S46 and S106 (10 mg/Kg/day) treated groups than in control. […] In the meantime, the blood glucose level was not recovered to normal in the vehicle treated group even after 120 minutes.

hPPARδ [6] = target: T2, hPPARδ (Homo sapiens, UniProt Q03181); assay: Transfection assay (luciferase reporter), PPARδ; type: cell-based; settings: CV-1 cells, full length PPAR plasmid, 24 hours
T2 construct: Full length PPARs plasmid DNA; expressed in transfected cells; host or cells: CV-1 cells
T2 sequence (Q03181 1-441): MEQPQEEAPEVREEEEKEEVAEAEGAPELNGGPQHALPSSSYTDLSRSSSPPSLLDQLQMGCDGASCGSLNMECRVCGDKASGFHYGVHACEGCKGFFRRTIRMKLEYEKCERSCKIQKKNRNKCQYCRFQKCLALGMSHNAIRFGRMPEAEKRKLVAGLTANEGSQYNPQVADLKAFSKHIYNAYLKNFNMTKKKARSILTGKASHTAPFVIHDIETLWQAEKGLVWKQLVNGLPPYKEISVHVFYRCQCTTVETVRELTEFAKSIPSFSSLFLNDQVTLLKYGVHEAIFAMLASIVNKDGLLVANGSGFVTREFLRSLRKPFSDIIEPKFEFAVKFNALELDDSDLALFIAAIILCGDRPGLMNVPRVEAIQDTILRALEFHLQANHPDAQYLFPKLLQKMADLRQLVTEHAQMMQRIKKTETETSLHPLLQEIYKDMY
Procedure: as §1, §2

hPPARα = target: T3, hPPARα (Homo sapiens, UniProt Q07869); assay: Transfection assay (luciferase reporter), PPARα; type: cell-based; settings: CV-1 cells, full length PPAR plasmid, 24 hours
T3 construct: Full length PPARs plasmid DNA; expressed in transfected cells; host or cells: CV-1 cells
T3 sequence (Q07869 1-468): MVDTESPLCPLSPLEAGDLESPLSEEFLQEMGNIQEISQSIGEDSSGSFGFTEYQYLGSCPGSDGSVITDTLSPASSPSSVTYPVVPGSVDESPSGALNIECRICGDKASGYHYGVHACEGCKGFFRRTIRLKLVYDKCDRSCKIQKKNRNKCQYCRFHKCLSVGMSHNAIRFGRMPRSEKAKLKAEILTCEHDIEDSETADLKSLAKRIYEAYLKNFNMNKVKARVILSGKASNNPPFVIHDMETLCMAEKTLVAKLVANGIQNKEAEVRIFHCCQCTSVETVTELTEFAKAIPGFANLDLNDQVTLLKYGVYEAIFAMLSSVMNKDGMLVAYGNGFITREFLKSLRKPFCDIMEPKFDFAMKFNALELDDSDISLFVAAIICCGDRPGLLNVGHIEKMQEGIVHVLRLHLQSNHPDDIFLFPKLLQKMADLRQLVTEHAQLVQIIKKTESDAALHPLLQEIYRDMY
Procedure: as §1, §2

[7] = Morris water maze test in LPS brain disease animal model; type: in vivo, C57BL/6 mice
Procedure: The therapeutic effect of the compound of the present invention on dementia and Parkinson's disease based on the memory improving effect thereof was investigated using brain disease animal model (C57BL/6 mice at 10 weeks). First, LPS was injected into the mouse brain to construct brain disease animal model. The mice were divided into four groups according to the administration and exercise. The exercise was performed with treadmill at the speed of 2 meter/min for the first 5 minutes, at 5 meter/min for 5 minutes, at 8 meter/min for 5 minutes and at 20 meter/min for the last 5 minutes. At the finish, Morris water maze test was performed. As a result, the therapeutic effect of the compound of the invention on dementia and Parkinson's disease via memory enhancement by the compound and exercise was confirmed in the brain disease animal model.

hPPARδ [8] = target: T2, hPPARδ; settings: literature, cited from earlier work
[9] = treated in pregnancy + lactation

SMILES | EC50 hPPARγ (hPPARγ) | EC50 (hPPARδ [6]) [nM] | EC50 hPPARα (hPPARα) | distance of exercise, increase compared with the control [1] [fold] | time of exercise, increase compared with the control [1] [fold] | average time spent to find the platform [2] [s] | weight increase compared with the vehicle group [3] [%] | increasing rate (treatment group/control group), length ([4]; treated in lactation) [times] | increasing rate (treatment group/control group), time ([4]; treated in lactation) [times] | increasing rate (treatment group/control group), length [4, 9] [times] | increasing rate (treatment group/control group), time [4, 9] [times] | increasing rate (treatment group/control group), length ([4]; treated in pregnancy) [times] | increasing rate (treatment group/control group), time ([4]; treated in pregnancy) [times] | fasting blood glucose versus control [5] | diabetes improving effect [5] | Results of water maze test ([7]; Exercise (X)) [s] | Results of water maze test ([7]; Exercise (◯)) [s] | EC50 (hPPARδ [8]; human PPARδ) [nM] | selectivity to hPPARδ over PPARα or PPARγ (hPPARδ [8]) [times]
Cc1cc(SC(Cc2ccccc2)c2ccc(-c3cc(F)c(F)c(F)c3)cc2)ccc1OCC(=O)O (centres unmarked) [Compound 46] | ia | 3.7 | ia | 1.3 | 1.3 | 7.8 | 43 | 1.5 | 1.5 | 3.0 | 2.8 | 1.9 | 1.9 | lower | had diabetes improving effect | 27 | 18 |  | 
Cc1cc(SC(Cc2c(F)cccc2C(F)(F)F)c2ccc(-c3ccccc3)cc2)ccc1OCC(=O)O (centres unmarked) [Compound 66] | ia | 33 | ia |  |  |  |  |  |  |  |  |  |  |  |  |  |  |  | 
Cc1cc(SC(Cc2ccccc2)c2ccc(-c3ccc(C(F)(F)F)cc3)cc2)ccc1OC(C)(C)C(=O)O (centres unmarked) [Compound 22] | ia | 9.3 | ia |  |  |  |  |  |  |  |  |  |  |  |  |  |  |  | 
CCCc1c(OCCCOc2ccc(OCC(=O)O)cc2)ccc(C(C)=O)c1O [Compound L-165041] |  |  |  |  |  |  |  |  |  |  |  |  |  |  |  |  |  | 530 | 10
Cc1cc(SC(Cc2ccccc2)c2ccc(-c3ccc(C(F)(F)F)cc3)nc2)ccc1OCC(=O)O (centres unmarked) [Compound 106] | ia | 3.2 | ia | 1.4 | 1.4 | 6.1 | 37 | 1.8 | 1.8 | 3.4 | 3.2 | 2.2 | 2.1 | lower | had diabetes improving effect | 23 | 15 |  | 
CCC(Oc1ccc(SC(Cc2ccccc2)c2ccc(-c3ccc(C(F)(F)F)cc3)cc2)cc1C)C(=O)O (centres unmarked) [Compound 23] | ia | 12 | ia |  |  |  |  |  |  |  |  |  |  |  |  |  |  |  | 

Now from value to compound, other results behind:

EC50 hPPARγ (hPPARγ) | EC50 (hPPARδ [6]) [nM] | EC50 hPPARα (hPPARα) | SMILES | distance of exercise, increase compared with the control [1] [fold] | time of exercise, increase compared with the control [1] [fold] | average time spent to find the platform [2] [s] | weight increase compared with the vehicle group [3] [%] | increasing rate (treatment group/control group), length ([4]; treated in lactation) [times] | increasing rate (treatment group/control group), time ([4]; treated in lactation) [times] | increasing rate (treatment group/control group), length [4, 9] [times] | increasing rate (treatment group/control group), time [4, 9] [times] | increasing rate (treatment group/control group), length ([4]; treated in pregnancy) [times] | increasing rate (treatment group/control group), time ([4]; treated in pregnancy) [times] | fasting blood glucose versus control [5] | diabetes improving effect [5] | Results of water maze test ([7]; Exercise (X)) [s] | Results of water maze test ([7]; Exercise (◯)) [s] | EC50 (hPPARδ [8]; human PPARδ) [nM] | selectivity to hPPARδ over PPARα or PPARγ (hPPARδ [8]) [times]
ia | 4.5 | ia | Cc1cc([Se]C(Cc2ccccc2)c2ccc(-c3ccc(C(F)(F)F)cc3)cc2)ccc1OCC(=O)O (centres unmarked) [Compound S164] |  |  |  |  |  |  |  |  |  |  |  |  |  |  |  | 
ia | 53 | ia | Cc1cc([Se]Cc2ccc(-c3ccc(C(F)(F)F)cc3)cc2)ccc1OCC(=O)O [Compound S306] |  |  |  |  |  |  |  |  |  |  |  |  |  |  |  | 
ia | 2.6 | ia | Cc1cc(SC(Cc2ccccc2)c2ccc(-c3ccc(C(F)(F)F)cc3)cc2)ccc1OCC(=O)O (centres unmarked) [Compound S14] | 1.5 | 1.5 | 5.2 | 31 | 2.2 | 2.1 | 3.9 | 3.6 | 2.5 | 2.4 | lower | had diabetes improving effect | 21 | 12 |  | 
